Results from patent publication US9260417B2, “Therapeutic methods and compositions involving allosteric kinase inhibition” (AMITECH THERAPEUTIC SOLUTIONS, INC., priority 2010, dated 2016).
Where two headings read alike, the source gives them in different places.

What was measured:
ABL1 = ABL1 (Homo sapiens (Human), UniProt P00519); experiment: In vitro kinase panel (SelectScreen); assay type: biochemical
Description: (§5) In vitro kinase screen and competitive binding assay. […] 11-point Kd curves were determined for hits identified during the initial screen.

FLT3 [1] = biological target: T1, FLT3 (Homo sapiens (Human), UniProt P36888); experiment: KINOMEscan competitive binding assay
Description: (§6) In vitro kinase screen and competitive binding assay. […] For the competitive binding assay, test compounds were screened at 10 μM against 70 diverse kinase targets for competitive binding using the KINOMEscan™ technology (Ambit Biosciences) (Karaman, et al. (2008) Nature biotechnology 26:127-132). 11-point Kd curves were determined for hits identified during the initial screen.

EGFR = EGFR (Homo sapiens (Human), UniProt P00533); experiment: In vitro kinase panel (SelectScreen); assay type: biochemical
Description: as §5

EGFR L858R = EGFR L858R (Homo sapiens (Human), UniProt P00533, L858R); experiment: In vitro kinase panel (SelectScreen); assay type: biochemical
Description: as §5

PKC beta I = PKC beta I (Homo sapiens (Human), UniProt P05771); experiment: In vitro kinase panel (SelectScreen); assay type: biochemical
Text: (§1) In vitro kinase screen and competitive binding assay. Sorafenib as well as test compounds were submitted to Invitrogen and screened using their SelectScreen™ Profiling Service.

MET (cMet) = MET (cMet) (Homo sapiens (Human), UniProt P08581); experiment: In vitro kinase panel (SelectScreen); assay type: biochemical
Text: as §1

MET M1250T = MET M1250T (Homo sapiens (Human), UniProt P08581, M1250T); experiment: In vitro kinase panel (SelectScreen); assay type: biochemical
Text: as §1

MAPKAPK2 = MAPKAPK2 (Homo sapiens (Human), UniProt P49137); experiment: In vitro kinase panel (SelectScreen); assay type: biochemical; conditions: for % Inhibition at 10 μM: MAPKAPK2
Sequence of MAPKAPK2 (P49137 whole entry): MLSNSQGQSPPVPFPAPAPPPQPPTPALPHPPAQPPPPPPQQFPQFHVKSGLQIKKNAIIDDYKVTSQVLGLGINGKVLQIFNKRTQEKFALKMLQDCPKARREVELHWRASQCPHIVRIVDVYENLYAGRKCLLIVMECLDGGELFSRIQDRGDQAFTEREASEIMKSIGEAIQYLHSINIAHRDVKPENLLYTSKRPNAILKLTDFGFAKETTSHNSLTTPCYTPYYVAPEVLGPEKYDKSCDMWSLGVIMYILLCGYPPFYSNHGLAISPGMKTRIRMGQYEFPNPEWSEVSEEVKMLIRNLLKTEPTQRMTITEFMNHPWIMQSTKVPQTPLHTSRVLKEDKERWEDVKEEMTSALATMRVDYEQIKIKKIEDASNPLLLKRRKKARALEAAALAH
Text: as §1

FGFR4 = FGFR4 (Homo sapiens (Human), UniProt P22455); experiment: In vitro kinase panel (SelectScreen); assay type: biochemical
Text: as §1

CK2 alpha 1 = CK2 alpha 1 (Homo sapiens (Human), UniProt P68400); experiment: In vitro kinase panel (SelectScreen); assay type: biochemical
Sequence of CK2 alpha 1 (P68400 whole entry): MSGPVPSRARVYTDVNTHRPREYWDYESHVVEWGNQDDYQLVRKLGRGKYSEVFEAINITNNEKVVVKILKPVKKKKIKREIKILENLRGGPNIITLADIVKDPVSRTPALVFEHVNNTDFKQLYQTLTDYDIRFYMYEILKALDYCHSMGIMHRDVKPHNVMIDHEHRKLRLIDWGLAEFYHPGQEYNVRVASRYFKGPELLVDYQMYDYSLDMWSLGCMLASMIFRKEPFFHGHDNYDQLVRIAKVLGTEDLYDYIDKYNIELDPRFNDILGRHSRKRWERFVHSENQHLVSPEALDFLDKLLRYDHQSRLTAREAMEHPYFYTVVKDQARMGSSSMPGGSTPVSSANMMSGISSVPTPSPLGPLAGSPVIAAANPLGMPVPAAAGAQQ
Text: as §1

PKC epsilon = PKC epsilon (Homo sapiens (Human), UniProt Q02156); experiment: In vitro kinase panel (SelectScreen); assay type: biochemical
Sequence of PKC epsilon (Q02156 whole entry): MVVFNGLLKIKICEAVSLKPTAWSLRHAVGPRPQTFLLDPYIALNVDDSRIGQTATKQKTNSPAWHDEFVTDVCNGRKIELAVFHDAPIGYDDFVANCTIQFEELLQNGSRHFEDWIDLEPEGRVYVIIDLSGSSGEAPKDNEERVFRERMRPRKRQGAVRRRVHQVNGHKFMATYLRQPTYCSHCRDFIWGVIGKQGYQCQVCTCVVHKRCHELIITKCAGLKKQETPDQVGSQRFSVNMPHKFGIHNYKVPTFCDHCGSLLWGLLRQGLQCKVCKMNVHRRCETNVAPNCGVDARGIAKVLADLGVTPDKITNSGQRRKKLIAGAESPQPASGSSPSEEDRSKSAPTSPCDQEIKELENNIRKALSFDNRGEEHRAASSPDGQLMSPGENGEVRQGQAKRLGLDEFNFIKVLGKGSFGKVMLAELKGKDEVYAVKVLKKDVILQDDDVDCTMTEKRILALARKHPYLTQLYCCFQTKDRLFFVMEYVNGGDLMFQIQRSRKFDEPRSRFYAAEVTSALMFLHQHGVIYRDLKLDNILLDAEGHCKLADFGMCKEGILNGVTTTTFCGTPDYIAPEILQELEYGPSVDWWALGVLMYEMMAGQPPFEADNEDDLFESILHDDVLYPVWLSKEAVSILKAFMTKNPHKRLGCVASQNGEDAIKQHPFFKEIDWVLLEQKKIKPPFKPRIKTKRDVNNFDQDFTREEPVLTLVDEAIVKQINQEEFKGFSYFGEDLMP
Text: as §1

FGFR3 K650E = FGFR3 K650E (Homo sapiens (Human), UniProt P22607, K650E); experiment: In vitro kinase panel (SelectScreen); assay type: biochemical
Sequence of FGFR3 K650E (P22607 23-806 K650E): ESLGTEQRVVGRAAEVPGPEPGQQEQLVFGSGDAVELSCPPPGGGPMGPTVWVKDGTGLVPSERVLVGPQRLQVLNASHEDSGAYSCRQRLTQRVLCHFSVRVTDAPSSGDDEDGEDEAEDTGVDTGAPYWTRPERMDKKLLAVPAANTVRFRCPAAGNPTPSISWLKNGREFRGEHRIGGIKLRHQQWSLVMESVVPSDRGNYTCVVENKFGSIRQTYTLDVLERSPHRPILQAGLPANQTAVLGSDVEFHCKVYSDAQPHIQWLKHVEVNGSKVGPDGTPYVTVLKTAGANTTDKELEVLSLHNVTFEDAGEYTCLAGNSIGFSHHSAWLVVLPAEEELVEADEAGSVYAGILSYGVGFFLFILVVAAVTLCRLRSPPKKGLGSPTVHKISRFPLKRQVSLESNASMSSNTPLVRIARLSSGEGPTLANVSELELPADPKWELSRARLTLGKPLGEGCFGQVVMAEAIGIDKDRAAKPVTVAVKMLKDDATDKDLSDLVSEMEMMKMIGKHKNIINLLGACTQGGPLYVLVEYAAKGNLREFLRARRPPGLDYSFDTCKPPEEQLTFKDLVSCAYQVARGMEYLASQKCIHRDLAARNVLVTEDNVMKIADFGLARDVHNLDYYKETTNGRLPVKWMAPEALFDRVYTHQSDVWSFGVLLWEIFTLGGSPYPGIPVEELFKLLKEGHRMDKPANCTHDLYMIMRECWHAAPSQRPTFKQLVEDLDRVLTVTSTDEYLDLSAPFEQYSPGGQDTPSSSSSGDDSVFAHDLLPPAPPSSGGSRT
Text: as §1

CRAF Y340D Y341D = CRAF Y340D Y341D (Homo sapiens (Human), UniProt P04049, Y340D/Y341D); experiment: In vitro kinase panel (SelectScreen); assay type: biochemical
Sequence of CRAF Y340D Y341D (P04049 whole entry Y340D/Y341D): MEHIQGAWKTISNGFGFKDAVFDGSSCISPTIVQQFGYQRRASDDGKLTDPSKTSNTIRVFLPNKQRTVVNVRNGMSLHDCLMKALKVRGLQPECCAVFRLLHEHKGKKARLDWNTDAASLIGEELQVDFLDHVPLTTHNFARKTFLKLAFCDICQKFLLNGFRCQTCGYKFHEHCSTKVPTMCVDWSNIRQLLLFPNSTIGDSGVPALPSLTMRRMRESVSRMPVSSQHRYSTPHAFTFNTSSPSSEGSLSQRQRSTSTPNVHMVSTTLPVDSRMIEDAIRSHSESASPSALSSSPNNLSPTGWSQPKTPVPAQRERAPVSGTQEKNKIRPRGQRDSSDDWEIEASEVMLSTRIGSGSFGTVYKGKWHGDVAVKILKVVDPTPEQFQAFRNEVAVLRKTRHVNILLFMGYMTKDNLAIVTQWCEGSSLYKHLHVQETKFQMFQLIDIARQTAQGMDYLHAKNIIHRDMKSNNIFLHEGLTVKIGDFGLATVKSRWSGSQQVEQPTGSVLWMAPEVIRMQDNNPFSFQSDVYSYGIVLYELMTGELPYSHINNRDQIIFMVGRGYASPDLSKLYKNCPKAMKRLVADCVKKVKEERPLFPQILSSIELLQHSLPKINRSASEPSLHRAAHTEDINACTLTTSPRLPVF
Text: as §1

KIT = KIT (Homo sapiens (Human), UniProt P10721); experiment: In vitro kinase panel (SelectScreen); assay type: biochemical
Sequence of KIT (P10721 26-976): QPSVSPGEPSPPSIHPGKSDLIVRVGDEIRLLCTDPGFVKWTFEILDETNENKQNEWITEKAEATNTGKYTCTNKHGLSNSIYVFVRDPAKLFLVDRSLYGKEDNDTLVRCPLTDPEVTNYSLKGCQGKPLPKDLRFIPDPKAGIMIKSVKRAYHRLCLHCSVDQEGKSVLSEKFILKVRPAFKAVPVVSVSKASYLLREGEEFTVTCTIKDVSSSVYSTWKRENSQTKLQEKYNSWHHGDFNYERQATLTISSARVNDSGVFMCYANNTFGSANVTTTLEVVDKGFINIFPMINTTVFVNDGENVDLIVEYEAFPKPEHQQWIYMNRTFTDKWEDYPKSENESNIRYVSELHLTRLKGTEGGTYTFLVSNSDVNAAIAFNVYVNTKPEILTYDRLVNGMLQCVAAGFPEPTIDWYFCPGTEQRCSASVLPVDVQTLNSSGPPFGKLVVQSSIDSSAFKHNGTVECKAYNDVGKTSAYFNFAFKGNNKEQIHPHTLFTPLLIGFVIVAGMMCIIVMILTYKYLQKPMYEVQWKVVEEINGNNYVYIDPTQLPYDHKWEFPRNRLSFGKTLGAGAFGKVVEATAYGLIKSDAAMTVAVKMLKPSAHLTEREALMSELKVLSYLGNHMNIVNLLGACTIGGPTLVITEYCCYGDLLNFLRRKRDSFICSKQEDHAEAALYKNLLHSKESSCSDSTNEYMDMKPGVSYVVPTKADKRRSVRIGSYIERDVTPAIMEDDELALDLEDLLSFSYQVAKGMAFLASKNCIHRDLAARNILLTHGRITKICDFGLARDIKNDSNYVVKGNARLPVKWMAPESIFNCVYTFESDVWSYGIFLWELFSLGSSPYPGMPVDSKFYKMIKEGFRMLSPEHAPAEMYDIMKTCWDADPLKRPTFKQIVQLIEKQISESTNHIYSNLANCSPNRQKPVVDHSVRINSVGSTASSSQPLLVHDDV
Text: as §1

IGF1R = IGF1R (Homo sapiens (Human), UniProt P08069); experiment: In vitro kinase panel (SelectScreen); assay type: biochemical
Text: as §1

PKC gamma = PKC gamma (Homo sapiens (Human), UniProt P05129); experiment: In vitro kinase panel (SelectScreen); assay type: biochemical
Text: as §1

CDK2 = CDK2 (Homo sapiens (Human), UniProt P24941); experiment: In vitro kinase panel (SelectScreen); assay type: biochemical
Text: as §1

JNK2 = JNK2 (Homo sapiens (Human), UniProt P45984); experiment: In vitro kinase panel (SelectScreen); assay type: biochemical
Sequence of JNK2 (P45984 whole entry): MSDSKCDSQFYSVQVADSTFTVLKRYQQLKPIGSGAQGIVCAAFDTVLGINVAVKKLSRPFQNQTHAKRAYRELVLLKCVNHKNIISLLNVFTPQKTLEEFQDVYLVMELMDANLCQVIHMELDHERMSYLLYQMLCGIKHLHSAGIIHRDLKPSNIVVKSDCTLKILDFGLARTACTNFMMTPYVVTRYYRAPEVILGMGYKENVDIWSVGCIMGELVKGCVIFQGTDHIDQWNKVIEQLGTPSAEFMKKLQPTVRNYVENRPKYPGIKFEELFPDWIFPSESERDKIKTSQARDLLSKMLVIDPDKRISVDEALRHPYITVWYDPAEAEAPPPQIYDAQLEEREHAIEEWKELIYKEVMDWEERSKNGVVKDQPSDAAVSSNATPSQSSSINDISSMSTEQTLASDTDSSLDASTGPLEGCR
Text: as §1

PKC delta = PKC delta (Homo sapiens (Human), UniProt Q05655); experiment: In vitro kinase panel (SelectScreen); assay type: biochemical
Sequence of PKC delta (Q05655 whole entry): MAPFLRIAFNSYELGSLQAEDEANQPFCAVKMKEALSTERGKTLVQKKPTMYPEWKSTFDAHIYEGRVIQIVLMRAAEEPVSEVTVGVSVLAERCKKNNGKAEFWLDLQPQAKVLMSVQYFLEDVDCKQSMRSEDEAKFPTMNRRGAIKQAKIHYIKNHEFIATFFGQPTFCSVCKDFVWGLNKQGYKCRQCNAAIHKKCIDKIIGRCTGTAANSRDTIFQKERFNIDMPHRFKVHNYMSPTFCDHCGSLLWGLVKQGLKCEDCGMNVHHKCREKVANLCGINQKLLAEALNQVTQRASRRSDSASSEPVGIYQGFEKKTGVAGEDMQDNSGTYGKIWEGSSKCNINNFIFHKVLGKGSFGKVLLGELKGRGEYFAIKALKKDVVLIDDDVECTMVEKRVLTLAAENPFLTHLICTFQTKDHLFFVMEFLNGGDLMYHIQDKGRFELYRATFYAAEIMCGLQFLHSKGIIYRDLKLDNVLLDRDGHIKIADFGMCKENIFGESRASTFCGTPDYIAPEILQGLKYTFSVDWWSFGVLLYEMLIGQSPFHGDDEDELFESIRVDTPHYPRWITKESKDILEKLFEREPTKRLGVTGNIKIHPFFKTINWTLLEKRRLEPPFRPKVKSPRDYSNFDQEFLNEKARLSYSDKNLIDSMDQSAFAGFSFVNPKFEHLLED
Text: as §1

KDR (VEGFR2) = KDR (VEGFR2) (Homo sapiens (Human), UniProt P35968); experiment: In vitro kinase panel (SelectScreen); assay type: biochemical
Description: as §5

VSMCs = experiment: XTT viability assay in VSMCs; assay type: cell-based, human; conditions: 72 h, full growth medium containing 10% FBS; read-out: EC50, VSMC viability
Description: (§2) FIG. 1A-1F illustrate molecular modeling and assay screening to compounds for dual targeting of PDGFRβ and RAF. (FIG. 1A) Molecular modeling of the amino-triazole based small molecules in PDGFRβ and RAF, respectively. […] A homology model of PDGFRβ was created with a structurally-related family member (VEGFR2, PDB 1y6b). […] To autophosphorylation, immunoblots were carried out with a phospho-tyrosine antibody. Membranes were stripped and reprobed for total PDGFRβ levels. […] (FIG. 1D) Structure activity relationships of the amino-triazole based small molecules comparing both PDGFRβ and B-RAF. […] Curves represent the average of 3 separate experiments, error bars represent ±SEM.
(§3) For XTT assays, cells were grown in 96-well plates overnight and all assays were conducted in growth medium will full serum and additives. […] Dose-response curves were plotted using GraphPad Prism software and EC50s were calculated using this program.

FLT3 [2] = biological target: T1, FLT3; experiment: In vitro kinase panel (SelectScreen); assay type: biochemical
Description: as §5

PDGFRA = PDGFRA (Homo sapiens (Human), UniProt P16234); experiment: KINOMEscan competitive binding assay
Description: as §6

FLT3 D835Y = FLT3 D835Y (Homo sapiens (Human), UniProt P36888, D835Y); experiment: In vitro kinase panel (SelectScreen); assay type: biochemical
Description: as §5

HUVECs = experiment: XTT viability assay in HUVECs; assay type: cell-based, human; conditions: 72 h, read-out: EC50, endothelial cell viability
Description: as §2, §3

HCT116 = experiment: Tumor cell viability; assay type: cell-based, human; conditions: Colon HCT116, K-Ras
Description: (§4) For XTT assays, cells were grown in 96-well plates overnight and all assays were conducted in growth medium will full serum and additives. Compounds were serially diluted in DMSO and then further diluted into the medium to give the appropriate concentration while minimizing precipitation associated with serial diluting in medium alone Inhibitors were added for 72 h and cell viability was quantified at 450 nm after the addition of 1 mg/ml XTT solution (Sigma-Aldrich) in phenol-red free DMEM medium containing […] (Sigma-Aldrich). Dose-response curves were plotted using GraphPad Prism software and EC50s were calculated using this program.

SK-MEL-2 = experiment: Tumor cell viability; assay type: cell-based; conditions: Melanoma SK-MEL-2, N-Ras
Description: as §4

MCF7 = experiment: Tumor cell viability; assay type: cell-based; conditions: Breast MCF7, PI3K
Description: as §4

R40P = experiment: Tumor cell viability; assay type: cell-based; conditions: Pancreatic (mouse spontaneous model) R40P, K-Ras
Description: as §4

CHL-1 = experiment: Tumor cell viability; assay type: cell-based; conditions: Melanoma CHL-1
Description: as §4

SK-MEL-28 = experiment: Tumor cell viability; assay type: cell-based; conditions: Melanoma SK-MEL-28, B-RAF V600E
Description: as §4

HT29 = experiment: Tumor cell viability; assay type: cell-based; conditions: Colon HT29, B-RAF V600E
Description: as §4

[3] = HUVECs, full growth medium containing 10% FBS

## Nc1cc(Oc2ccc(-c3nnc(Nc4cccc(C(F)(F)F)c4)[nH]3)cc2)ncn1 [Compound 3]
ABL1
  % Inhibition at 10 μM: 4%
FLT3 [1]
  Kd: 1.4 nM
EGFR
  % Inhibition at 10 μM: −2%
EGFR L858R
  % Inhibition at 10 μM: −3%
PKC beta I
  % Inhibition at 10 μM: −3%
MET (cMet)
  % Inhibition at 10 μM: 7%
MET M1250T
  % Inhibition at 10 μM: 4%
MAPKAPK2
  % Inhibition at 10 μM: 1%
FGFR4
  % Inhibition at 10 μM: −6%
CK2 alpha 1
  % Inhibition at 10 μM: −3%
PKC epsilon
  % Inhibition at 10 μM: −3%
FGFR3 K650E
  % Inhibition at 10 μM: 4%
CRAF Y340D Y341D
  % Inhibition at 10 μM: 38%
KIT
  % Inhibition at 10 μM: 74%
IGF1R
  % Inhibition at 10 μM: −4%
PKC gamma
  % Inhibition at 10 μM: 6%
CDK2
  % Inhibition at 10 μM: 2%
JNK2
  % Inhibition at 10 μM: −7%
PKC delta
  % Inhibition at 10 μM: −1%
KDR (VEGFR2)
  % Inhibition at 10 μM: 31%
VSMCs
  EC50: 15000 nM
FLT3 [2]
  % Inhibition at 10 μM: −4%
PDGFRA; PDGFRα
  Kd: 32 nM
FLT3 D835Y
  % Inhibition at 10 μM: 29%
HUVECs; [3]
  EC50: 18000 nM

## CSc1nc(N)cc(Oc2ccc(-c3nnc(Nc4cccc(C(F)(F)F)c4)[nH]3)cc2)n1 [Compound 6]
ABL1
  % Inhibition at 10 μM: 3%
FLT3 [1]; 10 uM
  % Control: 2.8%
EGFR
  % Inhibition at 10 μM: −3%
EGFR L858R
  % Inhibition at 10 μM: −10%
PKC beta I
  % Inhibition at 10 μM: 2%
MET (cMet)
  % Inhibition at 10 μM: 3%
MET M1250T
  % Inhibition at 10 μM: −1%
MAPKAPK2
  % Inhibition at 10 μM: 2%
FGFR4
  % Inhibition at 10 μM: −7%
CK2 alpha 1
  % Inhibition at 10 μM: 0%
PKC epsilon
  % Inhibition at 10 μM: −1%
FGFR3 K650E
  % Inhibition at 10 μM: −1%
CRAF Y340D Y341D
  % Inhibition at 10 μM: 3%
KIT
  % Inhibition at 10 μM: 28%
IGF1R
  % Inhibition at 10 μM: 0%
PKC gamma
  % Inhibition at 10 μM: 5%
CDK2
  % Inhibition at 10 μM: 2%
JNK2
  % Inhibition at 10 μM: −4%
PKC delta
  % Inhibition at 10 μM: −1%
KDR (VEGFR2)
  % Inhibition at 10 μM: 16%
HCT116
  EC50: 400 nM
VSMCs
  EC50: 590 nM
FLT3 [2]
  % Inhibition at 10 μM: −2%
SK-MEL-2
  EC50: 140 nM
MCF7
  EC50: 680 nM
R40P
  EC50: 660 nM
CHL-1
  EC50: 100 nM
SK-MEL-28
  EC50: 400 nM
HT29
  EC50: 620 nM
PDGFRA; 10 uM, PDGFRA
  % Control: 0.25%
FLT3 D835Y
  % Inhibition at 10 μM: 9%
HUVECs; [3]
  EC50: 540 nM

## CNC(=O)c1cc(Oc2ccc(NC(=O)Nc3ccc(Cl)c(C(F)(F)F)c3)cc2)ccn1 [sorafenib, reference compound]
PKC beta I
  inhibition at 10 µM: -1%
MET (cMet)
  inhibition at 10 µM: 2%
MET M1250T
  inhibition at 10 µM: 3%
MAPKAPK2; read-out: % Inhibition at 10 μM
  inhibition at 10 µM: 2%
FGFR4
  inhibition at 10 µM: 7%
CK2 alpha 1
  inhibition at 10 µM: -3%
PKC epsilon
  inhibition at 10 µM: -2%
FGFR3 K650E
  inhibition at 10 µM: 78%
CRAF Y340D Y341D
  inhibition at 10 µM: 95%
KIT
  inhibition at 10 µM: 37%
IGF1R
  inhibition at 10 µM: -3%
PKC gamma
  inhibition at 10 µM: -3%
CDK2
  inhibition at 10 µM: 2%
JNK2
  inhibition at 10 µM: 10%
PKC delta
  inhibition at 10 µM: -4%
HCT116; Homo sapiens, HCT-116
  EC50: 8210 nM
FLT3 [2]
  inhibition at 10 µM: 9%
SK-MEL-2; Homo sapiens
  EC50: 14300 nM
MCF7; Homo sapiens
  EC50: > 20000 nM
R40P
  EC50: 9430 nM
CHL-1; Homo sapiens
  EC50: 6100 nM
SK-MEL-28; Homo sapiens
  EC50: 17600 nM
HT29; Homo sapiens, HT-29
  EC50: > 20000 nM
FLT3 D835Y
  inhibition at 10 µM: 72%
HUVECs; Homo sapiens, HUVEC
  EC50: 13200 nM
